Values joined by “and” are separate entries in the source; they are usually repeats but may differ in a detail not shown here. Identical values can stand only once. One block for each molecule: values may come before it.
Test system: OVCAR-8 complex spheroid, growth inhibition
Assay: Anticancer human tumor OVCAR-8 cell line growth inhibition [Asc];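 also: spheroids exposed to agents for 7 days before readout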;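 as to viability, T/C: percent viability relative to DMSO vehicle wells taken as 100%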
Details: for viability, T/C: stronger effect = lower value
Procedure, shortened: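 Complex solid-tumor spheroids incorporating human endothelial and mesenchymal stem cells received single agents or combinations over half-log dilution ranges anchored to clinical Cmax.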

[1] = curve of first compound, second compound 0.00316 µM
[2] = curve of first compound, second compound 0.01 µM
[3] = curve of first compound, second compound 0.0316 µM
[4] = curve of first compound, second compound 0.1 µM
[5] = curve of first compound, second compound 0.316 µM
[6] = curve of first compound, second compound 1 µM

IC50 [1]: > 3 µM
IC50 [2]: > 3 µM
IC50 [3]: > 3 µM
IC50 [4]: > 3 µM
IC50 [5]: > 3 µM
IC50 [6]: > 3 µM
Structure (SMILES): CCN1C(C(=O)NC23CCC(C(=O)O)(CC2)CC3)C(c2cccc(Cl)c2F)C2(C(=O)Nc3cc(Cl)ccc32)C12CCCCC2 (stereo unspecified) + CNC(C)C(=O)NC1CN(S(=O)(=O)c2cccc(S(=O)(=O)N3CCC4CCC(C(=O)NC(c5ccccc5)c5ccccc5)N4C(=O)C(NC(=O)C(C)NC)C3)c2)CCC2CCC(C(=O)NC(c3ccccc3)c3ccccc3)N2C1=O
viability, T/C (second compound 0.00316 µM, first compound 0.00949 µM): 119%
viability, T/C (second compound 0.00316 µM, first compound 0.03 µM): 96.5%
viability, T/C (second compound 0.00316 µM, first compound 0.0949 µM): 104%
viability, T/C (second compound 0.00316 µM, first compound 0.3 µM): 97.9%
viability, T/C (second compound 0.00316 µM, first compound 0.949 µM): 106%
viability, T/C (second compound 0.00316 µM, first compound 3 µM): 110%
viability, T/C (second compound 0.01 µM, first compound 0.00949 µM): 98.4%
viability, T/C (second compound 0.01 µM, first compound 0.03 µM): 91.1%
viability, T/C (second compound 0.01 µM, first compound 0.0949 µM): 95%
viability, T/C (second compound 0.01 µM, first compound 0.3 µM): 84.8%
viability, T/C (second compound 0.01 µM, first compound 0.949 µM): 105%
viability, T/C (second compound 0.01 µM, first compound 3 µM): 107%
viability, T/C (second compound 0.0316 µM, first compound 0.00949 µM): 85.4%
viability, T/C (second compound 0.0316 µM, first compound 0.03 µM): 86.9%
viability, T/C (second compound 0.0316 µM, first compound 0.0949 µM): 92.7%
viability, T/C (second compound 0.0316 µM, first compound 0.3 µM): 102%
viability, T/C (second compound 0.0316 µM, first compound 0.949 µM): 102%
viability, T/C (second compound 0.0316 µM, first compound 3 µM): 118%
viability, T/C (second compound 0.1 µM, first compound 0.00949 µM): 85.3%
viability, T/C (second compound 0.1 µM, first compound 0.03 µM): 78.3%
viability, T/C (second compound 0.1 µM, first compound 0.0949 µM): 99.8%
viability, T/C (second compound 0.1 µM, first compound 0.3 µM): 88.1%
viability, T/C (second compound 0.1 µM, first compound 0.949 µM): 118%
viability, T/C (second compound 0.1 µM, first compound 3 µM): 103%
viability, T/C (second compound 0.316 µM, first compound 0.00949 µM): 98.8%
viability, T/C (second compound 0.316 µM, first compound 0.03 µM): 86.5%
viability, T/C (second compound 0.316 µM, first compound 0.0949 µM): 90.2%
viability, T/C (second compound 0.316 µM, first compound 0.3 µM): 78.3%
viability, T/C (second compound 0.316 µM, first compound 0.949 µM): 90.4%
viability, T/C (second compound 0.316 µM, first compound 3 µM): 97.5%
viability, T/C (second compound 1 µM, first compound 0.00949 µM): 80.5%
viability, T/C (second compound 1 µM, first compound 0.03 µM): 79.2%
viability, T/C (second compound 1 µM, first compound 0.0949 µM): 95.7%
viability, T/C (second compound 1 µM, first compound 0.3 µM): 84.2%
viability, T/C (second compound 1 µM, first compound 0.949 µM): 93.3%
viability, T/C (second compound 1 µM, first compound 3 µM): 112%

IC50 [1]: > 10 µM
IC50 [2]: > 10 µM
IC50 [3]: > 10 µM
IC50 [4]: > 10 µM
IC50 [5]: > 10 µM
IC50 [6]: > 10 µM
Structure (SMILES): C=CC(=O)N1CCN(c2nc(=O)n(-c3c(C)ccnc3C(C)C)c3nc(-c4c(O)cccc4F)c(F)cc23)C(C)C1 (stereo unspecified) + CNC(C)C(=O)NC1CN(S(=O)(=O)c2cccc(S(=O)(=O)N3CCC4CCC(C(=O)NC(c5ccccc5)c5ccccc5)N4C(=O)C(NC(=O)C(C)NC)C3)c2)CCC2CCC(C(=O)NC(c3ccccc3)c3ccccc3)N2C1=O
viability, T/C (second compound 0.00316 µM, first compound 0.0316 µM): 105%
viability, T/C (second compound 0.00316 µM, first compound 0.1 µM): 89.3%
viability, T/C (second compound 0.00316 µM, first compound 0.316 µM): 105%
viability, T/C (second compound 0.00316 µM, first compound 1 µM): 98.7%
viability, T/C (second compound 0.00316 µM, first compound 3.16 µM): 88.3%
viability, T/C (second compound 0.00316 µM, first compound 10 µM): 112%
viability, T/C (second compound 0.01 µM, first compound 0.0316 µM): 96.9%
viability, T/C (second compound 0.01 µM, first compound 0.1 µM): 95%
viability, T/C (second compound 0.01 µM, first compound 0.316 µM): 83.6%
viability, T/C (second compound 0.01 µM, first compound 1 µM): 89.2%
viability, T/C (second compound 0.01 µM, first compound 3.16 µM): 90.6%
viability, T/C (second compound 0.01 µM, first compound 10 µM): 122%
viability, T/C (second compound 0.0316 µM, first compound 0.0316 µM): 94.3%
viability, T/C (second compound 0.0316 µM, first compound 0.1 µM): 90.5%
viability, T/C (second compound 0.0316 µM, first compound 0.316 µM): 91.2%
viability, T/C (second compound 0.0316 µM, first compound 1 µM): 81.9%
viability, T/C (second compound 0.0316 µM, first compound 3.16 µM): 86.4%
viability, T/C (second compound 0.0316 µM, first compound 10 µM): 103%
viability, T/C (second compound 0.1 µM, first compound 0.0316 µM): 85.8%
viability, T/C (second compound 0.1 µM, first compound 0.1 µM): 81.4%
viability, T/C (second compound 0.1 µM, first compound 0.316 µM): 89.7%
viability, T/C (second compound 0.1 µM, first compound 1 µM): 86.1%
viability, T/C (second compound 0.1 µM, first compound 3.16 µM): 80%
viability, T/C (second compound 0.1 µM, first compound 10 µM): 92.2%
viability, T/C (second compound 0.316 µM, first compound 0.0316 µM): 80%
viability, T/C (second compound 0.316 µM, first compound 0.1 µM): 84.2%
viability, T/C (second compound 0.316 µM, first compound 0.316 µM): 107%
viability, T/C (second compound 0.316 µM, first compound 1 µM): 69.4%
viability, T/C (second compound 0.316 µM, first compound 3.16 µM): 79.6%
viability, T/C (second compound 0.316 µM, first compound 10 µM): 90.8%
viability, T/C (second compound 1 µM, first compound 0.0316 µM): 68.4%
viability, T/C (second compound 1 µM, first compound 0.1 µM): 79.8%
viability, T/C (second compound 1 µM, first compound 0.316 µM): 79.1%
viability, T/C (second compound 1 µM, first compound 1 µM): 84.7%
viability, T/C (second compound 1 µM, first compound 3.16 µM): 65.5%
viability, T/C (second compound 1 µM, first compound 10 µM): 69.1%

IC50 (curve of compound): > 1 µM
Structure (SMILES): O=C(c1ccc(F)c(F)c1Nc1ccc(I)cc1F)N1CC(O)([C@@H]2CCCCN2)C1
viability, T/C (compound 0.00316 µM): 95.4% and 98.1% and 96.1%
viability, T/C (compound 0.01 µM): 122% and 101% and 111%
viability, T/C (compound 0.0316 µM): 138% and 165% and 133%
viability, T/C (compound 0.1 µM): 153% and 165% and 190%
viability, T/C (compound 0.316 µM): 210% and 216% and 228%
viability, T/C (compound 1 µM): 107% and 80.8% and 86.8%
